Measurements published in paper PMC7481701 (Royal Society Open Science, 2020).

Assays:
[1] = molecular target: T1, ChTL activity of the purified human 20S proteasome (Homo sapiens, UniProt P28074); assay: Purified 20S proteasome activity assay, ChTL activity (Suc-LLVY-AMC); type: biochemical; conditions: for inhibitory activity against the 20S proteasome (in words): ChTL activity, figure 2b
T1 construct: The human erythrocyte 20S proteasome was obtained from Boston Biochem; purchased Boston Biochem; host or cells: human erythrocytes
Method: For the proteasome inhibition assays, the peptide-7-amino-4-methylcoumarin (AMC) substrates (25 µM Suc-LLVY-AMC) and inhibitors were added to assay solutions. The assay buffer had the following composition: 25 mM HEPES, 0.5 mM EDTA, 0.03% SDS (pH 8.0). Human erythrocyte 20S proteasome (100 ng) was added to the assay buffer containing substrates and inhibitors at a final volume of 100 µl. After incubation at 37°C for 1 h, the fluorescence emission spectrum at 450 nm (λex, 365 nm) was measured by using a fluorescence microplate reader. The inhibition against PGPH activity of the 20S proteasome was determined as described above except that Z-LLE-AMC was used as the substrate. For the assay of inhibition against the trypsin-like activity of complex 2, the SDS was omitted from the assay buffer and Boc-LRR-AMC was used as the substrate. The assay of inhibition against the trypsin-like activity of complexes 1 and 3 was carried out by the Screening Committee of Anticancer Drugs (Cancer Chemotherapy Center, Japanese Foundation for Cancer Research).
[picture] For the proteasome inhibition assays, the peptide-AMC substrates (25 µM Suc-LLVY-AMC) and inhibitors were added to assay solutions. The assay buffer had the following composition: 25 mM HEPES, 0.5 mM EDTA, 0.03% SDS (pH 8.0). Human erythrocyte 20S proteasome (100 ng) was added to the assay buffer containing substrates and inhibitors at a final volume of 100 µL. After incubation at 37°C for 1 h, the fluorescence emission spectrum at 450 nm (λex, 365 nm) was measured by using a fluorescence microplate reader.

[2] = molecular target: T2, ChTL activity of the 20S proteasome from cell lysates (colon26) (Mus musculus, UniProt O55234); assay: Inhibition against chymotrypsin-like activity in whole-cell lysates; type: biochemical; conditions: whole-cell lysate, figure S3
T2 construct: endogenous in cells; host or cells: colon26 whole-cell lysate
Method: Cultures of colon26 were grown at 37°C in RPMI1640 supplemented with 10% fetal bovine serum. Whole-cell lysates were prepared according to the method in the literature.
(§1) For the determination of inhibitory activity in whole-cell lysates, peptide-AMC substrates (50 µM Suc-LLVY-AMC), inhibitors and the whole-cell lysate (15 µg) were added to the assay solutions. The following assay buffer was used: 25 mM HEPES, 0.5 mM EDTA, 0.03% SDS (pH 8.0). After incubation at 37°C for 4 h, the fluorescence emission was measured at 450 nm (λex = 365 nm) by using a fluorescence microplate reader.
as §1, with “the whole cell lysate,” for “whole-cell lysates,”, “inhibitors,” for “inhibitors”, “whole cell” for “whole-cell”, “37 °C” for “37°C”

[3] = purified 20S proteasome, figure S2

remaining activity at 10 µM ([1]; at 10 µM, purified 20S proteasome, figure S2, read-out: residual activity of ChTL) [%] | IC50 ([1]; purified human erythrocyte 20S proteasome 100 ng, 25 µM Suc-LLVY-AMC, 37°C 1 h, mean ± s.d. (n = 3)) [µM] | inhibition in the cell-free system (in words) [2] | SMILES | inhibitory activity against the 20S proteasome (in words) [1, 3]
 |  |  | NCCN.[Cl-].[Cl-].[Pt+2].c1ccncc1.c1ccncc1 [Pt(py)2(ethylenediamine), (ethylenediamine)bispyridine platinum(II) chloride, reference compound] | no inhibitory activity
43 | ~10 | no inhibition | NCCNCc1c2ccccc2cc2ccccc12 [N-9-anthracenylmethyl-1,2-ethanediamine, reference compound] | weak inhibitory activity
